Assay results taken from patent US20240384268A1, “Oligonucleotides” (Hudson Institute of Medical Research, priority 2021, published 2024).

target: T1, human TLR7 (Homo sapiens, UniProt Q9NYK1); assay: HEK-TLR7 NF-κB-luciferase reporter, R848 stimulation; format: cell-based; conditions: MOE-modified ASO at 100 nM; averaged NF-κB-Luciferase relative to R848 condition
T1 construct: HA; host or cells: 293XL-hTLR7-HA (HEK293)
T1 sequence (Q9NYK1 27-1049): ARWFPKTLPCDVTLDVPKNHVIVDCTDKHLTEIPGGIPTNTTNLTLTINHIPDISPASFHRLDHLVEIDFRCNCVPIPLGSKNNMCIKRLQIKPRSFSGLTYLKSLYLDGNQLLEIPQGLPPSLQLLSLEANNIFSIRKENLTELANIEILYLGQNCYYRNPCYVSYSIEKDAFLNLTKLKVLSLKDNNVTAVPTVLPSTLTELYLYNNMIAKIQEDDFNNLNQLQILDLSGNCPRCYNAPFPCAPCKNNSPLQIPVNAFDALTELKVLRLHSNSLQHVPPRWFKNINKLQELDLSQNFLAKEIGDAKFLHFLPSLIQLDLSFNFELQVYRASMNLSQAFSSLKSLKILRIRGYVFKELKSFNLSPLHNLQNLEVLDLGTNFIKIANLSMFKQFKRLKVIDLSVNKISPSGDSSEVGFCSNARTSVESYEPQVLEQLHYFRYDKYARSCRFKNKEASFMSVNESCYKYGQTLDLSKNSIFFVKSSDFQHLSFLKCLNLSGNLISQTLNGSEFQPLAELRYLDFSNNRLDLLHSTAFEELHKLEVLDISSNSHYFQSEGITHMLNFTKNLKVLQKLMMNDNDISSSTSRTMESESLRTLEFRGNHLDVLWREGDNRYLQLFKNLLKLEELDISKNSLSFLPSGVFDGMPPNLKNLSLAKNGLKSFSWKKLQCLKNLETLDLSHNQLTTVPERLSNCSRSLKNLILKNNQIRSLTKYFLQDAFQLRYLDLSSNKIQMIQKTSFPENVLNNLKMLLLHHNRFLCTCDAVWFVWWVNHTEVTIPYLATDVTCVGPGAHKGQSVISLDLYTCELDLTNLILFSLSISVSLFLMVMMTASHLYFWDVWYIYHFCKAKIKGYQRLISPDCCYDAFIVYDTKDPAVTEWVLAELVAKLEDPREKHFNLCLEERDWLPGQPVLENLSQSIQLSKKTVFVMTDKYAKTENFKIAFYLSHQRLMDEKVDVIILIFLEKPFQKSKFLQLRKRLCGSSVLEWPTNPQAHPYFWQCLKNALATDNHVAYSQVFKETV

Sequence | TLR7 100 nM
AACACTTCGTGGGGTCCTTT (antisense; 2'-MOE modified, pattern not given here) [HPRT-664 MOE] | 0.406
AATCCGCCCAAAGGGAACTG (antisense; 2'-MOE modified, pattern not given here) [HPRT-1027 MOE] | 0.691
ACAACCCCTTTCACCATCCC (antisense; 2'-MOE modified, pattern not given here) [MB21D1-689 MOE] | 0.593
ACAGTGTTGAGATACTCGGG (antisense; 2'-MOE modified, pattern not given here) [EGFR-3652 MOE] | 0.420
ACCCACTTGGCAGACCATCA (antisense; 2'-MOE modified, pattern not given here) [CTNN2B-1575 MOE] | 0.473
ACTGACTGTCTTGAGGGTTC (antisense; 2'-MOE modified, pattern not given here) [MB21D1-1483 MOE] | 0.627
AGATCTGGCAGCCCATCAAC (antisense; 2'-MOE modified, pattern not given here) [CTNN2B-2516 MOE] | 0.500
AGGTCTTGGCTTCGTGGAGC (antisense; 2'-MOE modified, pattern not given here) [MB21D1-522 MOE] | 0.547
ATCCAACACTTCGTGGGGTC (antisense; 2'-MOE modified, pattern not given here) [HPRT-668 MOE] | 0.758
ATGTCCCCTGTTGACTGGTC (antisense; 2'-MOE modified, pattern not given here) [HPRT-489 MOE] | 0.426
ATGTCCCGCCACTGGATGCT (antisense; 2'-MOE modified, pattern not given here) [EGFR-727 MOE] | 0.397
ATGTGATGGCCTCCCATCTC (antisense; 2'-MOE modified, pattern not given here) [HPRT-333 MOE] | 0.643
CAACACTTCGTGGGGTCCTT (antisense; 2'-MOE modified, pattern not given here) [HPRT-665 MOE] | 0.487
CAAGGCCCTTCGCACTTCTT (antisense; 2'-MOE modified, pattern not given here) [EGFR-1225 MOE] | 0.587
CAATGTGATGGCCTCCCATC (antisense; 2'-MOE modified, pattern not given here) [HPRT-335 MOE] | 0.451
CACCCACTTGGCAGACCATC (antisense; 2'-MOE modified, pattern not given here) [CTNN2B-1576 MOE] | 0.600
CAGATAGCACCTTCAGCACT (antisense; 2'-MOE modified, pattern not given here) [CTNN2B-1294 MOE] | 0.497
CCAACACTTCGTGGGGTCCT (antisense; 2'-MOE modified, pattern not given here) [HPRT-666 MOE] | 0.856
CGTGTCTGGAAGCTTCCTTT (antisense; 2'-MOE modified, pattern not given here) [CTNN2B-808 MOE] | 0.541
CTCTTGAAGCATCGTATCAC (antisense; 2'-MOE modified, pattern not given here) [CTNN2B-3648 MOE] | 0.609
CTGTGATCTTGACATGCTGC (antisense; 2'-MOE modified, pattern not given here) [EGFR-2790 MOE] | 0.449

same assay, conditions: MOE-modified ASO at 500 nM; averaged NF-κB-Luciferase relative to R848 condition

Sequence | TLR7 500 nM
AACACTTCGTGGGGTCCTTT (antisense; 2'-MOE modified, pattern not given here) [HPRT-664 MOE] | 0.226
AATCCGCCCAAAGGGAACTG (antisense; 2'-MOE modified, pattern not given here) [HPRT-1027 MOE] | 0.521
ACAACCCCTTTCACCATCCC (antisense; 2'-MOE modified, pattern not given here) [MB21D1-689 MOE] | 0.533
ACAGTGTTGAGATACTCGGG (antisense; 2'-MOE modified, pattern not given here) [EGFR-3652 MOE] | 0.129
ACCCACTTGGCAGACCATCA (antisense; 2'-MOE modified, pattern not given here) [CTNN2B-1575 MOE] | 0.336
ACTGACTGTCTTGAGGGTTC (antisense; 2'-MOE modified, pattern not given here) [MB21D1-1483 MOE] | 0.299
AGATCTGGCAGCCCATCAAC (antisense; 2'-MOE modified, pattern not given here) [CTNN2B-2516 MOE] | 0.201
AGGTCTTGGCTTCGTGGAGC (antisense; 2'-MOE modified, pattern not given here) [MB21D1-522 MOE] | 0.150
ATCCAACACTTCGTGGGGTC (antisense; 2'-MOE modified, pattern not given here) [HPRT-668 MOE] | 0.611
ATGTCCCCTGTTGACTGGTC (antisense; 2'-MOE modified, pattern not given here) [HPRT-489 MOE] | 0.224
ATGTCCCGCCACTGGATGCT (antisense; 2'-MOE modified, pattern not given here) [EGFR-727 MOE] | 0.171
ATGTGATGGCCTCCCATCTC (antisense; 2'-MOE modified, pattern not given here) [HPRT-333 MOE] | 0.345
CAACACTTCGTGGGGTCCTT (antisense; 2'-MOE modified, pattern not given here) [HPRT-665 MOE] | 0.285
CAAGGCCCTTCGCACTTCTT (antisense; 2'-MOE modified, pattern not given here) [EGFR-1225 MOE] | 0.336
CAATGTGATGGCCTCCCATC (antisense; 2'-MOE modified, pattern not given here) [HPRT-335 MOE] | 0.279
CACCCACTTGGCAGACCATC (antisense; 2'-MOE modified, pattern not given here) [CTNN2B-1576 MOE] | 0.227
CAGATAGCACCTTCAGCACT (antisense; 2'-MOE modified, pattern not given here) [CTNN2B-1294 MOE] | 0.254
CCAACACTTCGTGGGGTCCT (antisense; 2'-MOE modified, pattern not given here) [HPRT-666 MOE] | 0.334
CGTGTCTGGAAGCTTCCTTT (antisense; 2'-MOE modified, pattern not given here) [CTNN2B-808 MOE] | 0.350
CTCTTGAAGCATCGTATCAC (antisense; 2'-MOE modified, pattern not given here) [CTNN2B-3648 MOE] | 0.341
CTGTGATCTTGACATGCTGC (antisense; 2'-MOE modified, pattern not given here) [EGFR-2790 MOE] | 0.206
